Patent US7638122B2, “Stat3 antagonists and their use as vaccines against cancer” (University of South Florida, priority 2003, dated 2009)
Square brackets hold non-standard residues; d marks the D form. Ends that are not written are not given here. pY = N[C@@H](Cc1ccc(OP(=O)(O)O)cc1)C(=O)O

System: bone marrow progenitor cells
Test: DC differentiation/maturation from bone marrow progenitor cells in the presence of tumor supernatants
Format: cell-based, mouse
Settings: supernatant from CT26 tumor cells (5%), 375 μM peptide, 6 days
Protocol: FIG. 7. Inhibition of Stat activity in dendritic cells alleviates the negative effect of tumor-secreted factors on DC differentiation. a, Stat activation in DCs treated for 1 hour with recombinant VEGF (100 ng/ml) or incubated for 15 min. with various supernatants as indicated. […] Bone marrow progenitor cells were cultured for 6 days in DC medium alone or in the presence of supernatant from CT26 tumor cells (5%) plus 375 μM of anti-Stat3 (PY*LKTK) (SEQ ID NO: 11); or control (PYLKTK) (SEQ ID NO: 12); peptide.
Preparation of bone marrow progenitor cells (BMPCs) and generation of bone marrow-derived mature DCs were carried out according to a previously described protocol (Lu et al., 2000, J. Exp. Med. 191: 541-550). Relatively mature DCs were obtained by incubating, BMPCs in medium containing GM-CSF and IL-4 for 6 days. […] Following 48 hours culture, suspension cells were collected and analyzed for IL-12 secretion by ELISA (R & D) and expression of DC-surface markers (CD86, CD40 and MHC Class II) by flow cytometry. All antibodies were purchased from PharMingen and surface expression was analyzed using a FACScan cytofluorometer (Becton Dickinson) as previously described, (Lu et al., 2000, supra). […] T-cell proliferation was measured by [^3H]-thymidine incorporation over 18 hours.

## PY*LKTK (P[pY]LKTK)
  effect of tumor-derived factors on DC differentiation: relieve the negative effect of tumor-derived factors on DC differentiation
